Inhibition data for two compounds are collected here from ChEMBL document CHEMBL1131362, “Synthesis and anticholinesterase activity of huperzine A analogues containing phenol and catechol replacements for the pyridone ring” (Bioorg Med Chem Lett, 1998).

Structures are written as SMILES. Activity calls are given as the source filed them. The calls are words filed in the database; no cut-off is given here.

For assay [1], the target named is T1, Acetylcholinesterase (Bos taurus) (UniProt P23795).
T1 sequence (whole entry): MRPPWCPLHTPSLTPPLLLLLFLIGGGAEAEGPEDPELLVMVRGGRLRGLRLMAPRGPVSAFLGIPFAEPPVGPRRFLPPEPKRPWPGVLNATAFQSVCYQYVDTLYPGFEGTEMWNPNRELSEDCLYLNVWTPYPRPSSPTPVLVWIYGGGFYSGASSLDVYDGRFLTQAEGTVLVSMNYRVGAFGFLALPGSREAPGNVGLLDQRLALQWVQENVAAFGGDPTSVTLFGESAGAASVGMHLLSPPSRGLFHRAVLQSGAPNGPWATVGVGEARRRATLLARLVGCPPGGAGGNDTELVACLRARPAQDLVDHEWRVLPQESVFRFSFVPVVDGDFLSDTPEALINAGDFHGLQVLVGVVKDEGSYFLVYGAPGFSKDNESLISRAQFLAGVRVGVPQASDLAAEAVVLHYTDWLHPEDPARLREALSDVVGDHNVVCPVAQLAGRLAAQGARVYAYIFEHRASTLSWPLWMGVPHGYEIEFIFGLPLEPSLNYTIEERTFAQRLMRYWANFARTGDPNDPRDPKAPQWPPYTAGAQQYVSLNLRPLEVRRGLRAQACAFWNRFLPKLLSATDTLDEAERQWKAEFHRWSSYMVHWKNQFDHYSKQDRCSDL
Nature of the assay: Compound was tested for acetylcholinesterase inhibition at concentration uM; No Inhibition.

Assay [2] deals with T1, Acetylcholinesterase (Bos taurus). Nature of the assay: Compound was tested for acetylcholinesterase inhibitory activity at concentration uM; Inactive.

For `C/C=C1\C2C=C(C)C[C@]1(N)c1ccc(O)c(O)c1C2`, the inhibition entry in assay [1] is “inactive”.
Turning to `C/C=C1\C2C=C(C)C[C@]1(N)c1ccc(O)cc1C2`, in assay [2], the inhibition result was “inactive”.
